From publication PMC8294059, “Identification and Immune Assessment of T Cell Epitopes in Five Plasmodium falciparum Blood Stage Antigens to Facilitate Vaccine Candidate Selection and Optimization” (Frontiers in Immunology, 2021)
Where a SMILES comes first, the peptide text is derived from it.

Legend:
HLA-B*0702 = HLA-B*0702 (Homo sapiens, UniProt P01889); assay: In vitro class I HLA binding assay (fluorescence polarization competition); settings: allele B*0702; for IC50 (nM): cell-free competition, fluorescence polarization at 72 hours, Non-binder = no dose-dependent inhibition
Description: A cell-free class I HLA binding assay that allows for in vitro quantification of peptide-HLA binding affinity in a competition format was used. In this assay, a fluorescently labeled, high binding, control peptide is loaded onto 384-well ½-area plates along with unlabeled experimental peptides. To remove endogenous peptides and render the HLA A and B molecules receptive to binding, HLA is heated at 53°C for 15 minutes and immediately added to the assay. The mixture is then allowed to stand for three days. […] Binding of experimental peptides is expressed as the percent inhibition of the labeled control peptide (experimental fluorescence / control fluorescence, multiplied by 100). The percent inhibition values for each experimental peptide (across a range of molar concentrations) are used to calculate the concentration which inhibits 50% of the labeled control peptide’s specific binding. This value is referred to as the peptide’s IC50.

HLA-A*0201 = HLA-A*0201 (Homo sapiens, UniProt P04439, D140Y/D185E/D98H/E176V/E277Q/G131W/G231S/I119V/I121R/I166T/I218V/L300P/L318F/N151K/N90K/P208A/P217A/Q86G/Q94H/R138H/R169H/T345S); assay: as above; settings: allele A*0201; fluorescence polarization competition
How it was run: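 Cell-free competition assay: HLA heat-treated 53°C for 15 min to strip endogenous peptides, then mixed with fluorescent high-affinity control peptide and test peptides for 72 h to equilibrium. Displacement read by fluorescence polarization as percent inhibition; IC50 derived from a concentration range.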

[1] = fluorescence polarization competition

Row | Compound | IC50 (nM), in vitro HLA binding affinity (HLA-B*0702; [1]) | further results
1 | CC(C)C[C@H](NC(=O)[C@H](CC(N)=O)NC(=O)[C@H](CCC(=O)O)NC(=O)[C@H](CCCCN)NC(=O)[C@H](CS)NC(=O)[C@@H](NC(=O)[C@H](CS)NC(=O)[C@H](CCC(=O)O)NC(=O)[C@@H]1CCCN1C(=O)[C@@H](N)CCCCN)C(C)C)C(=O)O [RIPR_0836] (H-KPECVCKENL-OH) |  | IC50 (HLA-B*0702; fluorescence polarization competition, read-out: IC50 (nM), in vitro HLA binding affinity): 206000 nM
2 | CPENSTCEQI [RIPR_0331] | Non-binder | 
3 | FITSDHLRQM [RH5_469] | Non-binder | 
4 | FNRIEYHTKI [RH5_421] | Non-binder | 
5 | FPCSLYKDEI [AMA1_441] | Non-binder | 
6 | HPYDINNKND [RH5_240] | Non-binder | 
7 | IPHYTFLDYY [RH5_176] | Non-binder | 
8 | KPHECVCNKQ [RIPR_0878] | Non-binder | 
9 | KRASHTTPV [AMA1_607] | Non-binder | IC50 (nM), in vitro HLA binding affinity (HLA-A*0201): Non-binder
10 | KSAFLPTGAF [AMA1_376] | Non-binder | 
11 | LPIKSTEEEK [RH5_042] | Non-binder | 
12 | LPSAKNNCEY [RIPR_0313] | Non-binder | 
13 | LQKHGFHTM [EBA175_1260] |  | IC50 (nM) (HLA-B*0702): Non-binder
14 | MDMKNYGTNL [RH5_330] | Non-binder | 
15 | MIRIKKKLIL [RH5_001] | Non-binder | 
16 | MNRTFKKMM [RH5_296] | Non-binder | 
17 | NPQQSVGENG [EBA175_0794] |  | IC50 (nM) (HLA-B*0702): Non-binder
18 | TPGPLDNTSE [EBA175_1073] |  | IC50 (nM) (HLA-B*0702): Non-binder
